Experimental data taken from ChEMBL document CHEMBL1201862, “PubChem BioAssay data set” (2004).
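Method: 48-hour compound exposure of cells in 96-well plates, five concentrations, linear interpolation of endpoints. GI50 marks 50% less growth.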 Calls of active or inactive are those of the source. Rule as the data show it: active = GI50 up to about 1.1 µM and inactive = higher.

Tests used:
Assay in all cases: NCI anticancer screen, dose series, 48 h
CCRF-CEM = tested on: CCRF-CEM
SR = tested on: SR
KM-20L2 = tested on: KM-20L2
XF498 = tested on: XF498
NCI-H23 = tested on: NCI-H23
LXFL 529 = tested on: LXFL 529
KM12 = tested on: KM12
OVCAR-4 = tested on: OVCAR-4
COLO 205 = tested on: COLO 205
OVCAR-8 = tested on: OVCAR-8
HOP-92 = tested on: HOP-92
Malme-3M = tested on: Malme-3M
M19-MEL = tested on: M19-MEL
MDA-MB-231 = tested on: MDA-MB-231
PC-3 = tested on: PC-3
DU-145 = tested on: DU-145
Hs-578T = tested on: Hs-578T
MDA-N = tested on: MDA-N
NCI/ADR-RES = tested on: NCI/ADR-RES

| Structure (SMILES) | GI50 (CCRF-CEM) | GI50 (SR) | GI50 (KM-20L2) | GI50 (XF498) | GI50 (NCI-H23) | GI50 (LXFL 529) | GI50 (KM12) | GI50 (OVCAR-4) | GI50 (COLO 205) | GI50 (OVCAR-8) | GI50 (HOP-92) | GI50 (Malme-3M) | GI50 (M19-MEL) | GI50 (MDA-MB-231) | GI50 (PC-3) | GI50 (DU-145) | GI50 (Hs-578T) | GI50 (MDA-N) | GI50 (NCI/ADR-RES) |
| --- | --- | --- | --- | --- | --- | --- | --- | --- | --- | --- | --- | --- | --- | --- | --- | --- | --- | --- | --- |
| Cc1c(OC(C)C(=O)O)ccc2c(-c3ccccc3)cc(=O)oc12 (centres undefined) | > 100 µM (inactive) | > 100 µM (inactive) | > 100 µM (inactive) | > 100 µM (inactive) | > 100 µM (inactive) | > 100 µM (inactive) | > 100 µM (inactive) | > 100 µM (inactive) | > 100 µM (inactive) | > 100 µM (inactive) | > 100 µM (inactive) | > 100 µM (inactive) | > 100 µM (inactive) |  |  |  |  |  |  |
| CCN(CC)CCO[Si](OCCN(CC)CC)(OCCN(CC)CC)OCCN(CC)CC |  | > 100 µM (inactive) | > 100 µM (inactive) | > 100 µM (inactive) | > 100 µM (inactive) |  | > 100 µM (inactive) | > 100 µM (inactive) | > 100 µM (inactive) | > 100 µM (inactive) |  | > 100 µM (inactive) | > 100 µM (inactive) |  |  |  |  |  |  |
| Cc1cc(C)nc(NS(=O)(=O)c2ccc(NC(=O)c3cccc4c(Nc5ccc(S(=O)(=O)Nc6cc(C)on6)cc5)c5ccccc5nc34)cc2)n1 | 28.8 µM (inactive) | 27.2 µM (inactive) |  | 21.1 µM (inactive) | 18.3 µM (inactive) | 16.1 µM (inactive) | 16.4 µM (inactive) | 23.2 µM (inactive) |  |  |  | 18 µM (inactive) | 26 µM (inactive) |  |  |  |  |  |  |
| O=C(Nc1ccc(Cl)c(Cl)c1)C(=O)C(C(=O)c1ccccc1F)C1OC(=O)c2ccccc21 (centres undefined) | 13.8 µM (inactive) | 10.4 µM (inactive) | 23.6 µM (inactive) | 31.8 µM (inactive) | 28.6 µM (inactive) | 17.6 µM (inactive) | 20 µM (inactive) | 22.3 µM (inactive) | 16.1 µM (inactive) | 15.2 µM (inactive) | 51.6 µM (inactive) |  | 14.6 µM (inactive) |  |  |  |  |  |  |
| CC1(Br)S(=O)(=O)OCCOS1(=O)=O | > 100 µM (inactive) | > 100 µM (inactive) | > 100 µM (inactive) | > 100 µM (inactive) | > 100 µM (inactive) | > 100 µM (inactive) |  | > 100 µM (inactive) | > 100 µM (inactive) | > 100 µM (inactive) | > 100 µM (inactive) | > 100 µM (inactive) | > 100 µM (inactive) |  |  |  |  |  |  |
| ON(Cc1ccccc1)C(=S)c1ccccc1 | 0.342 µM (active) | 0.481 µM (active) | 4.41 µM (inactive) | > 41.7 µM (inactive) | 3.62 µM (inactive) | 1.66 µM (inactive) | 4.76 µM (inactive) | 2.61 µM (inactive) | 1.45 µM (inactive) | 3.46 µM (inactive) | 50.7 µM (inactive) | 25.4 µM (inactive) | 6.58 µM (inactive) | 21.4 µM (inactive) | 3.03 µM (inactive) | 7.38 µM (inactive) | > 100 µM (inactive) | 6.81 µM (inactive) |  |
| COc1ccc2c(c1)OC(c1ccccc1O)CC2=O (centres undefined) | 30.5 µM (inactive) |  | > 100 µM (inactive) | 40.7 µM (inactive) | 28.7 µM (inactive) | 21.7 µM (inactive) | 27.5 µM (inactive) | 47.3 µM (inactive) |  | 47.6 µM (inactive) |  | 47.3 µM (inactive) |  |  |  |  |  |  |  |
| COc1ccc(NC(=O)C(=O)NNC(=O)c2sc(NNC(C)=O)nc2C)c([N+](=O)[O-])c1 | 24.2 µM (inactive) | 45.3 µM (inactive) | > 100 µM (inactive) | 71.3 µM (inactive) | > 100 µM (inactive) | 34.8 µM (inactive) | > 100 µM (inactive) | 51.5 µM (inactive) | > 100 µM (inactive) | > 100 µM (inactive) | > 100 µM (inactive) | > 100 µM (inactive) | > 100 µM (inactive) |  |  |  |  |  |  |
| COc1cc(C(C)c2cc3c(cc2OCCOCCOc2cc4c(cc2C(C)c2cc(OC)c(OC)c(OC)c2)OCO4)OCO3)cc(OC)c1OC (centres undefined) | > 10 µM (inactive) | > 10 µM (inactive) | > 10 µM (inactive) | > 10 µM (inactive) | > 10 µM (inactive) | > 10 µM (inactive) | > 10 µM (inactive) | > 10 µM (inactive) | > 10 µM (inactive) | > 10 µM (inactive) | 16.4 µM (inactive) | > 10 µM (inactive) | > 10 µM (inactive) |  |  |  |  |  |  |
| CCOC(=O)CCC1(C(=O)OCC)CCCCC1=O (centres undefined) | > 100 µM (inactive) |  | > 100 µM (inactive) | > 100 µM (inactive) | > 100 µM (inactive) | > 100 µM (inactive) | > 100 µM (inactive) |  | > 100 µM (inactive) | > 100 µM (inactive) | > 100 µM (inactive) | > 100 µM (inactive) | > 100 µM (inactive) |  |  |  |  |  |  |
| C=CCNC(=O)N(CCC)CCCC(NC(C)=O)C(=O)NCc1ccccc1 (centres undefined) | > 100 µM (inactive) |  | > 100 µM (inactive) | > 100 µM (inactive) | > 100 µM (inactive) | > 100 µM (inactive) | > 100 µM (inactive) | > 100 µM (inactive) | > 100 µM (inactive) | > 100 µM (inactive) | > 100 µM (inactive) | > 100 µM (inactive) | > 100 µM (inactive) |  |  |  |  |  |  |
| CCOC(=O)Cc1cc(OC)c(OC)cc1/C(Cl)=C(\CO)c1ccc(OC)c(OC)c1 | > 100 µM (inactive) |  | > 100 µM (inactive) | 16.9 µM (inactive) | 97.7 µM (inactive) |  |  | 44.4 µM (inactive) | > 100 µM (inactive) | > 100 µM (inactive) | 25.2 µM (inactive) | > 100 µM (inactive) | > 100 µM (inactive) |  |  |  |  |  |  |
| C=C(C)C1Cc2c(cc(O)c3c(=O)c4ccccc4n(C)c23)O1 (centres undefined) | 15.4 µM (inactive) | 29.9 µM (inactive) | > 100 µM (inactive) | 23.8 µM (inactive) | 32.2 µM (inactive) | 34 µM (inactive) | > 100 µM (inactive) | 9.93 µM (inactive) | > 100 µM (inactive) |  | 20.6 µM (inactive) | 64.4 µM (inactive) |  |  |  |  |  |  |  |
| COC(=O)C12C3C4C1C1C2C3C41C(=O)O (centres undefined) | > 100 µM (inactive) |  | > 100 µM (inactive) | > 100 µM (inactive) | > 100 µM (inactive) | > 100 µM (inactive) |  | > 100 µM (inactive) | > 100 µM (inactive) | > 100 µM (inactive) | > 100 µM (inactive) | > 100 µM (inactive) | > 100 µM (inactive) |  |  |  |  |  |  |
| Nc1ncnc2c1ncn2C1C(O)C=C(CO)C1O (centres undefined) |  |  | > 625 µM (inactive) | < 0.0625 µM (active) |  |  | > 625 µM (inactive) | > 625 µM (inactive) | > 625 µM (inactive) | > 625 µM (inactive) | 568 µM (inactive) | > 625 µM (inactive) | > 625 µM (inactive) |  |  |  |  |  | > 625 µM (inactive) |
| COC1=CC(=O)[C@@]2(C)C(C)[C@H](c3ccccc3)[C@H]2C1=O (some centres undefined) | > 100 µM (inactive) | > 100 µM (inactive) | > 100 µM (inactive) | > 100 µM (inactive) | > 100 µM (inactive) | > 100 µM (inactive) | > 100 µM (inactive) | > 100 µM (inactive) | > 100 µM (inactive) | > 100 µM (inactive) | > 100 µM (inactive) | > 100 µM (inactive) | > 100 µM (inactive) |  |  |  |  |  |  |
| S=C=NCCc1ccccc1 [PHENETHYLISOTHIOCYANATE] | 0.186 µM (active) | 0.351 µM (active) | 0.729 µM (active) | 2.39 µM (inactive) | 0.453 µM (active) | 0.212 µM (active) | 0.239 µM (active) | 2.14 µM (inactive) | 0.762 µM (active) | 1.33 µM (inactive) |  | 0.964 µM (active) | 0.753 µM (active) |  |  |  |  |  |  |
